Consider 1 compound from ChEMBL document CHEMBL5052835, “Slc26a3 inhibitors and use thereof” (2021).

Assay [1] deals with T1, Chloride anion exchanger (Mus musculus) (UniProt Q9WVC8).
T1 sequence (whole entry): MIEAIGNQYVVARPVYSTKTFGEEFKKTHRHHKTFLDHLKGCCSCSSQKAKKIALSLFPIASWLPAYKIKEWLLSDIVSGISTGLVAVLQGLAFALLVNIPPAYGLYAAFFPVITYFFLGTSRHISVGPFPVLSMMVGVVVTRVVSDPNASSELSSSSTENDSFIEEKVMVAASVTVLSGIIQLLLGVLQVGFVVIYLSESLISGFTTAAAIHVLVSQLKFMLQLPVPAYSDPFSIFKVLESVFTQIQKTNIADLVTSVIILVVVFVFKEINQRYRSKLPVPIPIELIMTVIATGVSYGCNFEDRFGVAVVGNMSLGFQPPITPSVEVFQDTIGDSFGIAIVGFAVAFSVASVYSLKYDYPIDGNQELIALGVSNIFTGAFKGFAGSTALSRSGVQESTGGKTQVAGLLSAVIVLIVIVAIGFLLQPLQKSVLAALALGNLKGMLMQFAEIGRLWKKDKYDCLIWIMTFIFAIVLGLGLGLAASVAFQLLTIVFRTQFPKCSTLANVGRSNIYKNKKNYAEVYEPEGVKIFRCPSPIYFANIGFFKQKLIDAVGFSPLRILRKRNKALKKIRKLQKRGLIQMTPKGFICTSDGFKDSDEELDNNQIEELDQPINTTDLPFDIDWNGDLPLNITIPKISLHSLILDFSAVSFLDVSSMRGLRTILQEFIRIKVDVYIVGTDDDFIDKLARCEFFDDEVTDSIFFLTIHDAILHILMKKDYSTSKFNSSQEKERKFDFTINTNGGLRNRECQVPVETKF
Kind of assay: Inhibition of mouse Slc26a3 transfected in rat FRT cells at 10 uM preincubated with forskolin, 8-Br-cGMP and PMA and measured by fluorescence assay relative to control. The class given is cell-based.

Another assay has as its system FRT. As to the kind of experiment: Inhibition of Slc26a3-mediated Cl-/ I- exchange in rat FRT cells assessed as half-life measured by fluorescence assay. The format is cell-based.
The target of another assay is T2, Pendrin (Mus musculus) (UniProt Q9R155).
T2 sequence (whole entry): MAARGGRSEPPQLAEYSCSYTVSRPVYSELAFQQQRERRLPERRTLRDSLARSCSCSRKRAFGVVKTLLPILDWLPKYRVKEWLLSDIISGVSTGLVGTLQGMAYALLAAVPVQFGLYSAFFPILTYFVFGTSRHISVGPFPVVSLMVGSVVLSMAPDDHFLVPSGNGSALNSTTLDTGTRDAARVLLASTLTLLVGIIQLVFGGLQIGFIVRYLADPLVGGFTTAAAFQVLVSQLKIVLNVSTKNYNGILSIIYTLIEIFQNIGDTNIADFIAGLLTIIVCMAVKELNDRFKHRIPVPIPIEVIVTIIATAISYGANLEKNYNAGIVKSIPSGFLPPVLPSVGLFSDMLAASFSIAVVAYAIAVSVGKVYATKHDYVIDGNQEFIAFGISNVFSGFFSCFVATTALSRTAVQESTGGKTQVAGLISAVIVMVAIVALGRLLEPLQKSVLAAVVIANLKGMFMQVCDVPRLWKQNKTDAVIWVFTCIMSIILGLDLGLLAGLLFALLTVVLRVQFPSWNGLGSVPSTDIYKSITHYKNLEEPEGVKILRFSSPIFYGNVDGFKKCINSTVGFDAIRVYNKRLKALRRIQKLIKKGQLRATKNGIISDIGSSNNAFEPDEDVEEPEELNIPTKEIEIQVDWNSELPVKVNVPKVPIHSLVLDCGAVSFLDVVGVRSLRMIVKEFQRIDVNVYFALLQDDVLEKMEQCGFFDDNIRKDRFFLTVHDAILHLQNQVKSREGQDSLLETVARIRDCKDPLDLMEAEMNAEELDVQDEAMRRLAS
Kind of assay: Inhibition of mouse Slc26a4-mediated Cl-/ I- exchange at 10 uM measured by cell-based fluorescence assay.

For assay [2], the species on record is Mus musculus. Kind of assay: Inhibition of mouse CFTR at 10 uM measured by cell-based fluorescence assay.
A further assay deals with Colon. As to the kind of experiment: Inhibition of fluid absorption in distal colonic loop isolated from female CD-1 mouse at 10 uM assessed as effect on reduction in loop weight/length ratio. The class given is functional, tissue-based.
The test system of assay [3] is Mus musculus. Kind of assay: In vivo inhibition of slc26a3 in loperamide-induced constipation model of cystic fibrosis mouse at 5 mg/kg, po assessed as reduction in stool water content. The class given is functional, organism-based.
Assay [4] has as its system Mus musculus. Kind of assay: Inhibition of oxalate absorption in sodium oxalate-induced acute hyperoxaluria mouse model at 5 mg/kg, po. The format is functional, organism-based.
Assay [5] deals with Mus musculus. Kind of assay: Inhibition of oxalate absorption in high oxalate and low calcium diet-induced oxalate nephropathy model of mouse at 5 mg/kg, po assessed as reduction in crystal deposition in kidney. The class given is functional, organism-based.
Another assay has as its system HBE. Kind of assay: Inhibition of CFTR in human HBE cells at 10 uM pretreated with forskolin assessed as effect on short-circuit current responses. The class given is cell-based.

Molecules are shown by their SMILES. Calls of active or inactive are those of the source. The calls are words filed in the database; no cut-off is given here. Where only a bound is given, the exact number is not on record here.

`Cc1c(CC(=O)O)c(=O)oc2c(C)c(OCc3cccc(Br)c3)ccc12`: the inhibition in assay [1] was above 50%. Further, in the assay on FRT, the T1/2 amounted to 30 s. For the same compound, the inhibition result at Pendrin (Mus musculus), in the assay filed under Mus musculus [2] and with HBE was “inactive” throughout. For the same compound, the inhibition entry in the assay with Colon, in the assay on Mus musculus [3], in the assay on Mus musculus [4] and with Mus musculus [5] was “Active” in each case.
